One data set deals with S. cerevisiae. Put plainly: in vitro. The conditions noted are these: Saccharomyces cerevisiae. The source says: (§1) These tests included an IL-12 mouse model test to determine compound efficacy, verification of MIC50 for CP, cytotoxicity test for fibroblasts and yeast to determine potential toxic effects, a Human ether-a-go-go-related gene (hERG) test to determine potential cardiotoxicity, an AMES test tp determine mutagenic potential, a Safety Screen 44 test to determine common negative off-target drug interastion (Eurofins Cerep, SA, France), a cytochrome P450 (CYP) test to determine potential liver toxicity, a maximum tolerated dose, test, a Pharmacokinetics (PK) test to determine fate of the substance administered to a living organism tests for plasma stability in human and mouse, to measure the degradation of compound in plasma MClint and HClint test to determine in vitro intrinsic clearance for Mouse and Human, and kinetic solubility and plasma protein binding tests in mouse and human.

In another data set the test system is human fibroblast. In words: in vitro.
Text: as §1

We go through 30 molecules from patent US11083717B2, “Compositions and methods for drug sensitization of parasites” (The Texas A&M University System, priority 2015, dated 2021).

Read-outs that look alike come from different tables or passages of the source.

As for `CC(C(=O)O)c1ccc(Oc2cnc3cc(Cl)ccc3n2)cc1` (stereo not drawn) [NZ-309, 2-{4-[(6-chloroquinoxalin-2-yl)oxy]phenyl}propanoic acid], the “concentrations at which not toxic, S. cerevisiae cytotoxicity testing” value with S. cerevisiae was at least 100 µM. The “concentrations at which not toxic, human fibroblast cytotoxicity testing” value with human fibroblast (human) was at least 100 µM.

On to `CC(C(=O)O)c1ccc(Oc2nc3ccc(Cl)cc3s2)cc1` (stereo not drawn) [NZ-312, 2-{4-[(6-chloro-1,3-benzothiazol-2-yl)oxy]phenyl}propanoic acid], for which, in the data set with S. cerevisiae, the “concentrations at which not toxic, S. cerevisiae cytotoxicity testing” value was at least 100 µM. Besides, the “concentrations at which not toxic, human fibroblast cytotoxicity testing” value in the data set on human fibroblast (human) was at least 100 µM.

`CONC(=O)C(C)c1ccc(Oc2nc3ccc(Cl)cc3s2)cc1` (stereo not drawn) [NZ-313, 2-{4-[(6-chloro-1,3-benzothiazol-2-yl)oxy]phenyl}-N-methoxypropanamide]: in the data set with S. cerevisiae, the “concentrations at which not toxic, S. cerevisiae cytotoxicity testing” value is at least 100 µM. In the data set with human fibroblast (human), the “concentrations at which not toxic, human fibroblast cytotoxicity testing” value is at least 100 µM.

As to `COC(=O)C(C)(C)Oc1ccc(Oc2cnc3cc(Cl)ccc3n2)cc1` [NZ-314, methyl 2-{4-[(6-chloroquinoxalin-2-yl)oxy]phenoxy}-2-methylpropanoate], the “concentrations at which not toxic, S. cerevisiae cytotoxicity testing” value in the data set with S. cerevisiae was at least 100 µM. Moreover, the “concentrations at which not toxic, human fibroblast cytotoxicity testing” value in the data set on human fibroblast (human) is at least 100 µM.

As to `CC(C)(Oc1ccc(Oc2cnc3cc(Cl)ccc3n2)cc1)C(=O)O` [NZ-315, 2-{4-[(6-chloroquinoxalin-2-yl)oxy]phenoxy}-2-methylpropanoic acid], in the data set with S. cerevisiae, the “concentrations at which not toxic, S. cerevisiae cytotoxicity testing” value was at least 100 µM. The “concentrations at which not toxic, human fibroblast cytotoxicity testing” value in the data set on human fibroblast was at least 100 µM.

As to `CONC(=O)C(C)(C)Oc1ccc(Oc2cnc3cc(Cl)ccc3n2)cc1` [NZ-316, 2-{4-[(6-chloroquinoxalin-2-yl)oxy]phenoxy}-N-methoxy-2-methylpropanamide], the “concentrations at which not toxic, S. cerevisiae cytotoxicity testing” value in the data set with S. cerevisiae is at least 100 µM. Besides, the “concentrations at which not toxic, human fibroblast cytotoxicity testing” value in the data set with human fibroblast (human) is at least 100 µM.

Consider `COC(=O)C(C)(C)Oc1ccc(Oc2nc3ccc(Cl)cc3s2)cc1` [NZ-317, methyl 2-{4-[(6-chloro-1,3-benzothiazol-2-yl)oxy]phenoxy}-2-methylpropanoate], for which, in the data set on S. cerevisiae, the “concentrations at which not toxic, S. cerevisiae cytotoxicity testing” value is at least 100 µM. For the same molecule, the “concentrations at which not toxic, human fibroblast cytotoxicity testing” value in the data set on human fibroblast (human) is at least 100 µM.

On to `CC(C)(Oc1ccc(Oc2nc3ccc(Cl)cc3s2)cc1)C(=O)O` [NZ-318, 2-{4-[(6-chloro-1,3-benzothiazol-2-yl)oxy]phenoxy}-2-methylpropanoic acid], for which the “concentrations at which not toxic, S. cerevisiae cytotoxicity testing” value with S. cerevisiae was at least 100 µM. For the same molecule, the “concentrations at which not toxic, human fibroblast cytotoxicity testing” value with human fibroblast was at least 100 µM.

For the molecule `CONC(=O)C(C)(C)Oc1ccc(Oc2nc3ccc(Cl)cc3s2)cc1` [NZ-319, 2-{4-[(6-chloro-1,3-benzothiazol-2-yl)oxy]phenoxy}-N-methoxy-2-methylpropanamide], the “concentrations at which not toxic, S. cerevisiae cytotoxicity testing” value in the data set with S. cerevisiae is at least 100 µM. In the data set on human fibroblast (human), the “concentrations at which not toxic, human fibroblast cytotoxicity testing” value is at least 100 µM.

Take `CONC(=O)c1cc2ccc(Oc3ccccc3)cc2oc1=O` [NZ-320, N-methoxy-2-oxo-7-phenoxy-2H-chromene-3-carboxamide]: the “concentrations at which not toxic, S. cerevisiae cytotoxicity testing” value in the data set with S. cerevisiae was at least 100 µM. Besides, in the data set on human fibroblast (human), the “concentrations at which not toxic, human fibroblast cytotoxicity testing” value was at least 100 µM.

Consider `CC(C)(C)OC(=O)Nc1ccc(Oc2cnc3cc(Cl)ccc3n2)cc1` [NZ-321, tert-butyl N-{4-[(6-chloroquinoxalin-2-yl)oxy]phenyl}carbamate], for which the “concentrations at which not toxic, S. cerevisiae cytotoxicity testing” value with S. cerevisiae was at least 100 µM. For the same molecule, the “concentrations at which not toxic, human fibroblast cytotoxicity testing” value with human fibroblast (human) is at least 100 µM.

Turning to `O=C(COc1ccc(Oc2cnc3cc(Cl)ccc3n2)cc1)NOCC1CC1` [NZ-323, 2-{4-[(6-chloroquinoxalin-2-yl)oxy]phenoxy}-N-(cyclopropylmethoxy)acetamide], the “concentrations at which not toxic, S. cerevisiae cytotoxicity testing” value with S. cerevisiae is at least 100 µM. Moreover, the “concentrations at which not toxic, human fibroblast cytotoxicity testing” value in the data set with human fibroblast was at least 100 µM.

Regarding `CC(C)ONC(=O)COc1ccc(Oc2cnc3cc(Cl)ccc3n2)cc1` [NZ-326, 2-{4-[(6-chloroquinoxalin-2-yl)oxy]phenoxy}-N-(propan-2-yloxy)acetamide], in the data set with S. cerevisiae, the “concentrations at which not toxic, S. cerevisiae cytotoxicity testing” value is at least 100 µM. Besides, the “concentrations at which not toxic, human fibroblast cytotoxicity testing” value in the data set on human fibroblast was at least 100 µM.

With `COC(=O)C(C)c1ccc(Oc2nc3ccc(F)cc3s2)cc1` (stereo not drawn) [NZ-328, methyl 2-{4-[(6-fluoro-1,3-benzothiazol-2-yl)oxy]phenyl}propanoate], the “concentrations at which not toxic, S. cerevisiae cytotoxicity testing” value with S. cerevisiae is at least 100 µM. In addition, the “concentrations at which not toxic, human fibroblast cytotoxicity testing” value in the data set on human fibroblast (human) was at least 100 µM.

On to `CC(C(=O)O)c1ccc(Oc2nc3ccc(F)cc3s2)cc1` (stereo not drawn) [NZ-329, 2-{4-[(6-fluoro-1,3-benzothiazol-2-yl)oxy]phenyl}propanoic acid], for which, in the data set with S. cerevisiae, the “concentrations at which not toxic, S. cerevisiae cytotoxicity testing” value was at least 100 µM. Further, the “concentrations at which not toxic, human fibroblast cytotoxicity testing” value with human fibroblast (human) is at least 100 µM.

Regarding `CONC(=O)C(C)c1ccc(Oc2nc3ccc(F)cc3s2)cc1` (stereo not drawn) [NZ-330, 2-{4-[(6-fluoro-1,3-benzothiazol-2-yl)oxy]phenyl}-N-methoxypropanamide], the “concentrations at which not toxic, S. cerevisiae cytotoxicity testing” value in the data set with S. cerevisiae is at least 100 µM. In addition, the “concentrations at which not toxic, human fibroblast cytotoxicity testing” value with human fibroblast (human) was at least 100 µM.

With `COc1ccc2nc(Oc3ccc(C(C)C(=O)O)cc3)sc2c1` (stereo not drawn) [NZ-334], the “concentrations at which not toxic, S. cerevisiae cytotoxicity testing” value in the data set with S. cerevisiae is at least 100 µM. Also, the “concentrations at which not toxic, human fibroblast cytotoxicity testing” value in the data set with human fibroblast (human) is at least 100 µM.

Take `CONC(=O)C(C)c1ccc(Oc2nc3ccc(OC)cc3s2)cc1` (stereo not drawn) [NZ-335, N-methoxy-2-{4-[(6-methoxy-1,3-benzothiazol-2-yl)oxy]phenyl}propanamide]: the “concentrations at which not toxic, S. cerevisiae cytotoxicity testing” value in the data set with S. cerevisiae was at least 100 µM. Moreover, the “concentrations at which not toxic, human fibroblast cytotoxicity testing” value in the data set with human fibroblast (human) is at least 100 µM.

Consider `COC(=O)C(O)c1ccc(Oc2nc3ccc(Cl)cc3s2)cc1` (stereo not drawn) [NZ-336, methyl 2-{4-[(6-chloro-1,3-benzothiazol-2-yl)oxy]phenyl}-2-hydroxyacetate], for which the “concentrations at which not toxic, S. cerevisiae cytotoxicity testing” value in the data set with S. cerevisiae lay within 50 to 100 µM. For the same molecule, the “concentrations at which not toxic, human fibroblast cytotoxicity testing” value in the data set on human fibroblast (human) was 50 to 100 µM.

On to `O=C(O)C(O)c1ccc(Oc2nc3ccc(Cl)cc3s2)cc1` (stereo not drawn) [NZ-337, 2-{4-[(6-chloro-1,3-benzothiazol-2-yl)oxy]phenyl}-2-hydroxyacetic acid], for which the “concentrations at which not toxic, S. cerevisiae cytotoxicity testing” value in the data set on S. cerevisiae is at least 100 µM. Further, the “concentrations at which not toxic, human fibroblast cytotoxicity testing” value in the data set on human fibroblast (human) was at least 100 µM.

For `COc1ccc2nc(Oc3ccc(NC(=O)NC(C)C)cc3)sc2c1` [NZ-361, 1-{4-[(6-methoxy-1,3-benzathiazol-2-yl)oxy]phenyl}-3-(propan-2-yl)urea], in the data set with S. cerevisiae, the “concentrations at which not toxic, S. cerevisiae cytotoxicity testing” value was at least 100 µM. For the same molecule, the “concentrations at which not toxic, human fibroblast cytotoxicity testing” value in the data set on human fibroblast (human) was at least 100 µM.

Regarding `CC(C)NC(=O)Nc1ccc(Oc2nc3ccc(O)cc3s2)cc1` [NZ-362, 1-{4-[(6-hydroxy-1,3-benzothiazol-2-yl)oxy]phenyl}-3-(propan-2-yl)urea], the “concentrations at which not toxic, S. cerevisiae cytotoxicity testing” value in the data set on S. cerevisiae was at least 100 µM. Further, the “concentrations at which not toxic, human fibroblast cytotoxicity testing” value with human fibroblast (human) was at least 100 µM.

Regarding `CC(C)NC(=O)Nc1ccc(Oc2nc3cc(F)ccc3s2)cc1` [NZ-373, 1-{4-[(5-fluoro-1,3-benzothiazol-2-yl)oxy]phenyl}-3-(propan-2-yl)urea], the “concentrations at which not toxic, S. cerevisiae cytotoxicity testing” value with S. cerevisiae is at least 100 µM. In the data set with human fibroblast, the “concentrations at which not toxic, human fibroblast cytotoxicity testing” value is at least 100 µM.

Regarding `CC(C)NC(=O)Nc1ccc(Oc2nc3c(F)cccc3s2)cc1` [NZ-374, 1-{4-[(4-fluoro-1,3-benzothiazol-2-yl)oxy]phenyl}-3-(propan-2-yl)urea], the “concentrations at which not toxic, S. cerevisiae cytotoxicity testing” value with S. cerevisiae was at least 100 µM. The “concentrations at which not toxic, human fibroblast cytotoxicity testing” value in the data set with human fibroblast (human) was at least 100 µM.

As to `CC(C)NC(=O)Nc1ccc(Oc2nc3cc(Cl)ccc3s2)cc1` [NZ-376, 1-{4-[(5-chloro-1,3-benzothiazol-2-yl)oxy]phenyl}-3-(propan-2-yl)urea], the “concentrations at which not toxic, S. cerevisiae cytotoxicity testing” value in the data set on S. cerevisiae was at least 100 µM. Also, in the data set with human fibroblast, the “concentrations at which not toxic, human fibroblast cytotoxicity testing” value is at least 100 µM.

With `CC(C)NC(=O)Nc1ccc(Oc2nc3ccc(C#N)cc3s2)cc1` [NZ-377, 1-{4-[(6-cyano-1,3-benzothiazol-2-yl)oxy]phenyl}-3-(propan-2-yl)urea], in the data set with S. cerevisiae, the “concentrations at which not toxic, S. cerevisiae cytotoxicity testing” value is at least 100 µM. Further, the “concentrations at which not toxic, human fibroblast cytotoxicity testing” value in the data set with human fibroblast was at least 100 µM.

In the case of `CCOC(=O)c1ccc2nc(Oc3ccc(NC(=O)NC(C)C)cc3)sc2c1` [NZ-378, ethyl 2-(4-{[(propan-2-yl)carbamoyl]amino}phenoxy)-1,3-benzothiazole-6-carboxylate], the “concentrations at which not toxic, S. cerevisiae cytotoxicity testing” value with S. cerevisiae was at least 100 µM. Moreover, the “concentrations at which not toxic, human fibroblast cytotoxicity testing” value with human fibroblast (human) was at least 100 µM.

Turning to `CC(C)NC(=O)Nc1ccc(Oc2nc3ccc(C(F)(F)F)cc3s2)cc1` [NZ-379, 3-(propan-2-yl)-1-(4-{[6-(trifluoromethyl)-1,3-benzothiazol-2-yl]oxy}phenyl)urea], in the data set on S. cerevisiae, the “concentrations at which not toxic, S. cerevisiae cytotoxicity testing” value was at least 100 µM. Moreover, in the data set on human fibroblast (human), the “concentrations at which not toxic, human fibroblast cytotoxicity testing” value was at least 100 µM.

Regarding `CC(C)NC(=O)Nc1ccc(Oc2nc3ccc(S(C)(=O)=O)cc3s2)cc1` [NZ-380, 1-{4-[(6-methanesulfonyl-1,3-benzothiazol-2-yl)oxy]phenyl}-3-(propan-2-yl)urea], the “concentrations at which not toxic, S. cerevisiae cytotoxicity testing” value with S. cerevisiae is at least 100 µM. In addition, the “concentrations at which not toxic, human fibroblast cytotoxicity testing” value in the data set on human fibroblast (human) was at least 100 µM.

For the molecule `CC(C)NC(=O)Nc1ccc(Oc2nc3ccc(CO)cc3s2)cc1` [NZ-381, 1-(4-{[6-(hydroxymethyl)-1,3-benzothiazol-2-yl]oxy}phenyl)-3-(propan-2-yl)urea], the “concentrations at which not toxic, S. cerevisiae cytotoxicity testing” value in the data set on S. cerevisiae is at least 100 µM. Moreover, the “concentrations at which not toxic, human fibroblast cytotoxicity testing” value with human fibroblast (human) is at least 100 µM.
